In US20150299188A1, “HETEROCYCLIC COMPOUND” (priority 2012, published 2015):

tested on: FLAP (5-lipoxygenase activating protein); experiment: In vitro binding test: displacement of [3H]-7-chloro-3-(5-((3-fluoropyridin-2-yl)methoxy)-2-methylphenyl)-3,4-dihydroquinazolin-2(1H)-one from Sf9 microsome fractions; parameters: species or system human and mouse; details: Sf9 microsome fractions expressing FLAP; 100% = radioligand binding with 10 μM sodium 3-(3-(tert-butylsulfanyl)-1-(4-chlorobenzyl)-5-isopropyl-1H-indol-2-yl)-2,2-dimethylpropanoate, 0% = DMSO; test compound concentration not given
Method in brief: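 Sf9 microsomes expressing human or mouse FLAP (2 μg/mL) preincubated with compound 10 min at room temperature, then 120 nM tritiated quinazolinone ligand added for 60 min; buffer 100 mM Tris-HCl pH 7.5 with NaCl, EDTA, DTT, glycerol, Tween20. Bound ligand filtered and counted by scintillation; 10 μM indole propanoate defines 100% inhibition, DMSO 0%.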

| SMILES | inhibitory rate (%) |
| --- | --- |
| COC(=O)c1ccc2c(c1)NC(=O)N(c1cc(OCc3cc(F)ccc3F)ccc1C)C2 [Example 199, methyl 3-(5-((2,5-difluorobenzyl)oxy)-2-methylphenyl)-2-oxo-1,2,3,4-tetrahydroquinazoline-7-carboxylate] | 60% |
| COC(=O)c1ccc2c(c1)NC(=O)N(c1cc(OCc3ccc(F)cc3F)ccc1C)C2 [Example 200, methyl 3-(5-((2,4-difluorobenzyl)oxy)-2-methylphenyl)-2-oxo-1,2,3,4-tetrahydroquinazoline-7-carboxylate] | 100% |
| Cc1ccc(OCc2ccc(F)cc2F)cc1N1Cc2ccc(C(C)(C)O)cc2NC1=O [Example 201, 3-(5-((2,4-difluorobenzyl)oxy)-2-methylphenyl)-7-(2-hydroxypropan-2-yl)-3,4-dihydroquinazolin-2(1H)-one] | 104% |
| Cc1ccc(OCc2c(F)cccc2F)cc1N1Cc2c(cccc2C(C)(C)O)NC1=O [Example 202, 3-(5-((2,6-difluorobenzyl)oxy)-2-methylphenyl)-5-(2-hydroxypropan-2-yl)-3,4-dihydroquinazolin-2(1H)-one] | 72% |
| Cc1ccc(OCc2cccc(F)c2F)cc1N1Cc2ccc(C(C)(C)O)cc2NC1=O [Example 203, 3-(5-((2,3-difluorobenzyl)oxy)-2-methylphenyl)-7-(2-hydroxypropan-2-yl)-3,4-dihydroquinazolin-2(1H)-one] | 81% |
| Cc1ccc(OCc2c(F)cccc2F)cc1N1Cc2ccc(C#N)cc2NC1=O [Example 204, 3-(5-((2,6-difluorobenzyl)oxy)-2-methylphenyl)-2-oxo-1,2,3,4-tetrahydroquinazoline-7-carbonitrile] | 103% |
| Cc1ccc(OCc2c(F)cccc2F)cc1N1Cc2ccc(C(=O)N3CCCC(O)C3)cc2NC1=O (stereo not shown) [Example 205, 3-(5-((2,6-difluorobenzyl)oxy)-2-methylphenyl)-7-((3-hydroxypiperidin-1-yl)carbonyl)-3,4-dihydroquinazolin-2(1H)-one] | 77% |
| Cc1ccc(OCc2c(F)cccc2F)cc1N1Cc2ccc(CN)cc2NC1=O [Example 206, 7-(aminomethyl)-3-(5-((2,6-difluorobenzyl)oxy)-2-methylphenyl)-3,4-dihydroquinazolin-2(1H)-one] | 81% |
| Cc1ccc(OCc2c(F)cccc2F)cc1N1Cc2ccc(C(=O)NC(C)(C)C(=O)O)cc2NC1=O [Example 207, N-((3-(5-((2,6-difluorobenzyl)oxy)-2-methylphenyl)-2-oxo-1,2,3,4-tetrahydroquinazolin-7-yl)carbonyl)-2-methylalanine] | 87% |
| Cc1ccc(OCc2c(F)cccc2F)cc1N1Cc2ccc(-c3noc(=O)[nH]3)cc2NC1=O [Example 208, 3-(5-((2,6-difluorobenzyl)oxy)-2-methylphenyl)-7-(5-oxo-4,5-dihydro-1,2,4-oxadiazol-3-yl)-3,4-dihydroquinazolin-2(1H)-one] | 96% |
| Cc1ccc(OCc2c(F)cccc2F)cc1N1Cc2ccc(C(=O)NS(C)(=O)=O)cc2NC1=O [Example 209, 3-(5-((2,6-difluorobenzyl)oxy)-2-methylphenyl)-N-(methylsulfonyl)-2-oxo-1,2,3,4-tetrahydroquinazoline-7-carboxamide] | 102% |
| Cc1ccc(OCc2c(F)cccc2F)cc1N1Cc2ccc(C3=NC(C)(C)C(=O)O3)cc2NC1=O [Example 210, 3-(5-((2,6-difluorobenzyl)oxy)-2-methylphenyl)-7-(4,4-dimethyl-5-oxo-4,5-dihydro-1,3-oxazol-2-yl)-3,4-dihydroquinazolin-2(1H)-one] | 96% |
| COC(=O)c1ccc2c(c1)NC(=O)N(c1cc(OCc3csc(C)n3)ccc1C)C2 [Example 211, methyl 3-(2-methyl-5-((2-methyl-1,3-thiazol-4-yl)methoxy)phenyl)-2-oxo-1,2,3,4-tetrahydroquinazoline-7-carboxylate] | 86% |
| O=C1Nc2ccccc2CN1c1cc(OCc2ncccc2F)ccc1Br [Example 212, 3-(2-bromo-5-((3-fluoropyridin-2-yl)methoxy)phenyl)-3,4-dihydroquinazolin-2(1H)-one] | 113% |
| O=C1Nc2ccccc2CN1c1cc(OCc2ncccc2F)ccc1C1CC1 [Example 213, 3-(2-cyclopropyl-5-((3-fluoropyridin-2-yl)methoxy)phenyl)-3,4-dihydroquinazolin-2(1H)-one] | 114% |
| O=C1Nc2ccccc2CN1c1cc(OCc2ncccc2F)ccc1C(F)(F)F [Example 214, 3-(5-((3-fluoropyridin-2-yl)methoxy)-2-(trifluoromethyl)phenyl)-3,4-dihydroquinazolin-2(1H)-one] | 110% |
| Cc1ccc(OC(C)c2ncccc2F)cc1N1Cc2ccccc2NC1=O (stereo not shown) [Example 215, 3-(5-(1-(3-fluoropyridin-2-yl)ethoxy)-2-methylphenyl)-3,4-dihydroquinazolin-2(1H)-one] | 79% |
| COC(=O)c1ccc2c(c1)NC(=O)N(c1cc(OCc3ncccc3F)ccc1C)C2 [Example 216, methyl 3-(5-((3-fluoropyridin-2-yl)methoxy)-2-methylphenyl)-2-oxo-1,2,3,4-tetrahydroquinazoline-7-carboxylate] | 104% |
| Cc1ccc(OCc2c(F)cccc2F)cc1N1Cc2cccc(C(C)(C)O)c2NC1=O [Example 217, 3-(5-((2,6-difluorobenzyl)oxy)-2-methylphenyl)-8-(2-hydroxypropan-2-yl)-3,4-dihydroquinazolin-2(1H)-one] | 87% |
| O=C1Nc2cc(CO)ccc2CN1c1cc(OCc2c(F)cccc2F)ccc1Cl [Example 218, 3-(2-chloro-5-((2,6-difluorobenzyl)oxy)phenyl)-7-(hydroxymethyl)-3,4-dihydroquinazolin-2(1H)-one] | 95% |
| COC(=O)c1ccc(OCc2ncccc2F)cc1N1Cc2ccccc2NC1=O [Example 219, methyl 4-((3-fluoropyridin-2-yl)methoxy)-2-(2-oxo-1,4-dihydroquinazolin-3(2H)-yl)benzoate] | 106% |
| CCc1ccc(OCc2ncccc2F)cc1N1Cc2ccccc2NC1=O [Example 220, 3-(2-ethyl-5-((3-fluoropyridin-2-yl)methoxy)phenyl)-3,4-dihydroquinazolin-2(1H)-one] | 106% |
| O=C(NC1CC1)c1ccc(OCc2ncccc2F)cc1N1Cc2ccccc2NC1=O [Example 221, N-cyclopropyl-4-((3-fluoropyridin-2-yl)methoxy)-2-(2-oxo-1,4-dihydroquinazolin-3(2H)-yl)benzamide] | 72% |

More lines, now with the values ahead:

| inhibitory rate (%) | SMILES |
| --- | --- |
| 103% | CC(C)(O)c1ccc2c(c1)NC(=O)N(c1cc(OCc3c(F)cccc3F)ccc1Cl)C2 [Example 222, 3-(2-chloro-5-((2,6-difluorobenzyl)oxy)phenyl)-7-(2-hydroxypropan-2-yl)-3,4-dihydroquinazolin-2(1H)-one] |
| 95% | Cc1ccc(OCc2c(F)cccc2F)cc1N1Cc2ncccc2NC1=O [Example 223, 3-(5-((2,6-difluorobenzyl)oxy)-2-methylphenyl)-3,4-dihydropyrido[3,2-d]pyrimidin-2(1H)-one] |
| 87% | N#Cc1ccc(OCc2ncccc2F)cc1N1Cc2ccccc2NC1=O [Example 224, 4-((3-fluoropyridin-2-yl)methoxy)-2-(2-oxo-1,4-dihydroquinazolin-3(2H)-yl)benzonitrile] |
| 100% | CCCCOC(=O)/C=C/c1ccc(OCc2ncccc2F)cc1N1Cc2ccccc2NC1=O [Example 225, butyl (2E)-3-(4-((3-fluoropyridin-2-yl)methoxy)-2-(2-oxo-1,4-dihydroquinazolin-3(2H)-yl)phenyl)acrylate] |
| 52% | Cc1nc(COc2ccc(C)c(N3Cc4ccc(C(C)(C)O)cc4NC3=O)c2)cs1 [Example 226, 7-(2-hydroxypropan-2-yl)-3-(2-methyl-5-((2-methyl-1,3-thiazol-4-yl)methoxy)phenyl)-3,4-dihydroquinazolin-2(1H)-one] |
| 90% | Cc1ccc(OCc2ncccc2F)cc1N1Cc2ccc(C(=O)N3CCCC(O)C3)cc2NC1=O (stereo not shown) [Example 227, 3-(5-((3-fluoropyridin-2-yl)methoxy)-2-methylphenyl)-7-((3-hydroxypiperidin-1-yl)carbonyl)-3,4-dihydroquinazolin-2(1H)-one] |
| 95% | CCCCOC(=O)CCc1ccc(OCc2ncccc2F)cc1N1Cc2ccccc2NC1=O [Example 228, butyl 3-(4-((3-fluoropyridin-2-yl)methoxy)-2-(2-oxo-1,4-dihydroquinazolin-3(2H)-yl)phenyl)propanoate] |
| 76% | O=C(O)CCc1ccc(OCc2ncccc2F)cc1N1Cc2ccccc2NC1=O [Example 229, 3-(4-((3-fluoropyridin-2-yl)methoxy)-2-(2-oxo-1,4-dihydroquinazolin-3(2H)-yl)phenyl)propanoic acid] |
| 103% | O=C1Nc2ccccc2CN1c1cc(OCc2ncccc2F)ccc1Cl [Example 231, 3-(2-chloro-5-((3-fluoropyridin-2-yl)methoxy)phenyl)-3,4-dihydroquinazolin-2(1H)-one] |
| 104% | COC(=O)c1ccc2c(c1)NC(=O)N(c1cc(OCc3ccccn3)ccc1C)C2 [Example 232, methyl 3-(2-methyl-5-(pyridin-2-ylmethoxy)phenyl)-2-oxo-1,2,3,4-tetrahydroquinazoline-7-carboxylate] |
| 87% | CC(C)(O)c1ccc2c(c1)NC(=O)N(c1cc(OCc3c(F)cccc3F)ccc1F)C2 [Example 233, 3-(5-((2,6-difluorobenzyl)oxy)-2-fluorophenyl)-7-(2-hydroxypropan-2-yl)-3,4-dihydroquinazolin-2(1H)-one] |
